Measured values reported in US20260008758A1, “LINEAR DIPEPTIDYL PEPTIDASE 1 INHIBITORS AND USES THEREOF” (Insmed Incorporated, priority 2024, published 2026).

Assays:
[1] = target: DPP1 in HL-60 cells (Homo sapiens (Human), UniProt P53634); test: DPP1 cell single-point percent inhibition testing (HL-60 cells, H-Gly-Phe-AFC substrate); type: cell-based; settings: read-out: DPP1 cell % inhibition @ 5 nM, 5 nM compound, 100 μM H-Gly-Phe-AFC, 60 min pre-incubation at 37° C.
Description: HL-60 cells (ATCC; Manassas, VA) were maintained in RPMI-1640 supplemented with 20% heat-inactivated FBS and 1× Antibiotic Antimycotic (Cytiva; Marlborough, MA). Media was changed every three to four days and cells were not allowed to exceed 1×10^6 cells per mL. Prior to assay, cells were collected by centrifugation at 500 rcf for 3 minutes, resuspended in RPMI (with no additional supplements) and counted. Cells were diluted in RPMI to a concentration of 5×10^5 live cells per mL and transferred to black 96-well plates for assay, 60 μL per well. Test articles were diluted to 25 nM in RPMI plus 0.5% DMSO, and 20 μL was added to each assay well. Compound was allowed to pre-incubate with cells with gentle shaking at 100 rpm for 60 minutes at 37° C. in a cell culture incubator maintained at 5% CO2, after which 20 μL of 500 μM H-Gly-Phe-AFC cell-permeable substrate (MP Biomedicals; Solon, OH) in RPMI was added to each well, giving final compound concentration of 5 nM, a final substrate concentration of 100 μM and a final DMSO concentration of 0.1%. Plates were returned to the incubator with shaking at 100 rpm for 30 minutes, after which fluorescence was measured at Excitation/Emission 400/505 nm. Percent Inhibition was calculated from RFU values by first subtracting background values (wells in which RPMI was substituted for cells) from each well, and then subtracting background-subtracted RFU derived from wells that received a final concentration of 10 μM brensocatib. This value represents the non-specific substrate cleavage from the HL-60 cells, and the remaining RFU should theoretically be solely the contribution of DPP1 enzyme activity. The final percent inhibition value was calculated for each test article based on remaining RFU compared to RFU from wells that received only vehicle control.

[2] = target: human DPP1 enzyme (Homo sapiens (Human), UniProt P53634); test: Human DPP1 enzyme single-point percent inhibition testing (HL-60 lysate, H-Gly-Arg-AMC substrate); type: biochemical; settings: read-out: human DPP1 enzyme % inhibition @ 10 nM, 10 nM compound, 400 μM H-Gly-Arg-AMC, 10 min pre-incubation at 37° C.
Chain of human DPP1 enzyme (P53634 25-134): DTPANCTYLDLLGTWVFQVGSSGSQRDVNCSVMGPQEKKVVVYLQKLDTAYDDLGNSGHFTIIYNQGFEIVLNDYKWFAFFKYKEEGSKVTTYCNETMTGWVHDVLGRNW
Chain of human DPP1 enzyme (P53634 231-394): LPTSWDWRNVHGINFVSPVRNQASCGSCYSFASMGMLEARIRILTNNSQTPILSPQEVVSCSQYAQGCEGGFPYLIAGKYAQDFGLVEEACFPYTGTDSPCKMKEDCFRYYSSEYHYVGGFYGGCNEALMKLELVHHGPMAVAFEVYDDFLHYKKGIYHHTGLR
Chain of human DPP1 enzyme (P53634 395-463): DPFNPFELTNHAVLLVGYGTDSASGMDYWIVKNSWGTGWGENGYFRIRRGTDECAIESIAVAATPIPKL
Description: A crude lysate of HL-60 cells (ATCC; Manassas, VA) was used as a source of human DPP1 enzyme in the assay. Lysate was prepared in 1% Triton X-100 in PBS at a concentration of 20,000 live cells per […] of lysis buffer and was centrifuged at 16,000 rcf for 10 minutes at 4° C., after which supernatant was collected and flash-frozen in liquid nitrogen. Test articles were applied to human DPP1 enzyme in Assay Buffer (25 mM MES pH 6.0, 50 mM NaCl, 5 mM DTT) in a total reaction volume of 125 μL. 25 μL of compound diluted to 50 nM in Assay Buffer plus 5% DMSO was first added to 50 μL of HL-60 lysate diluted to contain a DPP1 enzyme concentration of roughly 1 ng/μL and allowed to pre-incubate for 10 minutes at 37° C. after which 50 μL of 1000 μM H-Gly-Arg-AMC substrate (Bachem; St. Torrance, CA) was added, giving final compound concentration of 10 nM, a final substrate concentration of 400 μM and a final DMSO concentration of 1%. Substrate cleavage was measured for 90 minutes at 37° C., with fluorescence at Excitation/Emission 350/450 nm measured every 5 minutes. DPP1 concentration was interpolated based on its activity relative to a standard curve of activated human recombinant DPP1 enzyme. Percent inhibition at 10 nM was calculated for each test article based on remaining DPP1 activity compared to enzyme activity in wells that received only vehicle control.

Chain of DPP1 in HL-60 cells (P53634 25-134): as the sequence (P53634 25-134) above
Chain of DPP1 in HL-60 cells (P53634 231-394): as the sequence (P53634 231-394) above
Chain of DPP1 in HL-60 cells (P53634 395-463): as the sequence (P53634 395-463) above

Structure (SMILES)	inhibition at 0.005 µM [1] [%]	inhibition at 0.01 µM [2] [%]
CO[C@@H](CN(C)C)C(=O)N[C@H](C#N)Cc1ccc(-c2ccc3c(c2)C2(CCCN(C)C2)C(=O)N3C)cc1F (stereo partly shown) [Compound 314]	≥ 93.9	40 to 66.7
CN(C)C[C@H](O)C(=O)N[C@H](C#N)Cc1cc2c(cc1F)-c1ccc(C#N)cc1CO2 [Compound 338]	≤ 76.5	≤ 40
Cc1cn2cc(-c3ccc(C[C@@H](C#N)NC(=O)[C@@H](O)CN(C)C)c(F)c3)cc2c(C)n1 [Compound 358]	≤ 76.5	≤ 40
CO[C@@H](CN(C)C)C(=O)N[C@H](C#N)Cc1ccc(-c2ccc3cnn(C)c3c2)cc1F [Compound 332]	≤ 76.5	≤ 40
CO[C@@H](CN(C)C)C(=O)N[C@H](C#N)Cc1ccc(-c2ccc3c(c2)C2(CCCN(C)C2)C(=O)N3C)cc1 (stereo partly shown) [Compound 301]	76.5 to 93.9	≤ 40
CN(C)C[C@](C)(O)C(=O)N[C@H](C#N)Cc1ccc(-c2ccc3oc(=O)n(C)c3c2)cc1F [Compound 408]	≥ 93.9	≥ 66.7
CN(C)C[C@H](O)C(=O)N[C@H](C#N)Cc1ccc(-c2ccc3nnn(C)c3c2)cc1 [Compound 371]	≤ 76.5	≤ 40
CN(C)C[C@H](O)C(=O)N[C@H](C#N)Cc1ccc(-c2ccc(S(=O)(=O)N3CCC3)cc2)cc1F [Compound 377]	≤ 76.5	≤ 40
CO[C@@H](CN(C)C)C(=O)N[C@H](C#N)Cc1ccc(-c2ccc(CN3CCN(C)CC3)cc2)cc1F [Compound 323]	76.5 to 93.9	≤ 40
CN(C)C[C@](C)(O)C(=O)N[C@H](C#N)Cc1ccc(-c2ccc3c(c2)C2(CCN(C)C2)OC3=O)cc1F (stereo partly shown) [Compound 403]	76.5 to 93.9	≥ 66.7
CN(C)C[C@](C)(O)C(=O)N[C@H](C#N)Cc1ccc(-c2ccc3cnn(C4CCN(C)CC4)c3c2)cc1F [Compound 404]	≤ 76.5	≥ 66.7
CO[C@@H](CN(C)C)C(=O)N[C@H](C#N)Cc1ccc(-c2ccc3c(c2)C2(CCN(C4COC4)CC2)OC3)cc1F [Compound 321]	≤ 76.5	40 to 66.7
CN(C)C[C@](C)(O)C(=O)N[C@H](C#N)Cc1ccc(-c2cnc3c(n2)CCCC3)cc1 [Compound 414]	≤ 76.5	≤ 40
CN(C)C[C@H](O)C(=O)N[C@H](C#N)Cc1ccc(-c2ccc3c(c2)C2(CCN(C4COC4)CC2)OC3)cc1F [Compound 363]	≤ 76.5	40 to 66.7
Cc1cn2cc(-c3ccc(C[C@@H](C#N)NC(=O)[C@@](C)(O)CN(C)C)c(F)c3)cc2c(C)n1 [Compound 400]	76.5 to 93.9	40 to 66.7
CN(C)C[C@H](O)C(=O)N[C@H](C#N)Cc1ccc(-c2ccc3c(c2)C2(CN(C)C2)OC3=O)cc1F [Compound 359]	≤ 76.5	40 to 66.7
CN(C)CCn1c(=O)oc2ccc(-c3ccc(C[C@@H](C#N)NC(=O)[C@@H](O)CN(C)C)c(F)c3)cc21 [Compound 357]	≤ 76.5	≥ 66.7
CCN1C(=O)Cc2ccc(-c3ccc(C[C@@H](C#N)NC(=O)[C@@H](O)CN(C)C)c(F)c3)cc21 [Compound 360]	76.5 to 93.9	40 to 66.7
CN(C)C[C@](C)(O)C(=O)N[C@H](C#N)Cc1ccc(-c2ccc3c(n2)CCCN3)cc1 [Compound 396]	≤ 76.5	≤ 40
CO[C@@H](CN(C)C)C(=O)N[C@H](C#N)Cc1ccc(-c2cnc3c(n2)CCCC3)cc1 [Compound 330]	≤ 76.5	≤ 40
CN(C)C[C@](C)(O)C(=O)N[C@H](C#N)Cc1ccc(-c2ccc3nnn(C)c3c2)cc1 [Compound 413]	76.5 to 93.9	40 to 66.7

Structure (SMILES)	inhibition at 0.005 µM [1] [%]	inhibition at 0.01 µM [2] [%]
CN(C)C[C@H](O)C(=O)N[C@H](C#N)Cc1ccc(-c2ccc3c(c2)C2(CC3)CCN(C)CC2)cc1 [Compound 342]	≤ 76.5	40 to 66.7
CN(C)C[C@H](O)C(=O)NC(C#N)Cc1cc2c(cc1F)-c1cc3c(cc1CO2)oc(=O)n3C (stereo partly shown) [Compound 339]	≤ 76.5	≤ 40
CO[C@@H](CN(C)C)C(=O)N[C@H](C#N)Cc1cc2c(cc1F)-c1ccc(C#N)cc1CO2 [Compound 296]	≤ 76.5	≤ 40
CO[C@@H](CN(C)C)C(=O)N[C@H](C#N)Cc1ccc(-c2ccc3c(n2)CCCN3)cc1 [Compound 312]	≤ 76.5	≤ 40
CN(C)C[C@](C)(O)C(=O)N[C@H](C#N)Cc1ccc(-c2ccc3c(c2)C2(CCCN(C)C2)C(=O)N3C)cc1 (stereo partly shown) [Compound 385]	≥ 93.9	≥ 66.7
CO[C@@H](CN(C)C)C(=O)N[C@H](C#N)Cc1ccc(-c2ccc3c(c2)C2(CN(C)C2)OC3=O)cc1 [Compound 304]	≤ 76.5	≤ 40
CO[C@@H](CN(C)C)C(=O)NC(C#N)Cc1cc2c(cc1F)-c1ccc3oc(=O)n(C)c3c1CO2 (stereo partly shown) [Compound 299]	≤ 76.5	≤ 40
CN(C)C[C@H](O)C(=O)N[C@H](C#N)Cc1ccc(-c2ccc3c(c2)C2(CC3)CCN(C)CC2)cc1F [Compound 355]	≤ 76.5	≥ 66.7
CN(C)C[C@](C)(O)C(=O)N[C@H](C#N)Cc1ccc(-c2ccc3c(c2)C2(CCN(C)C2)OC3=O)cc1 (stereo partly shown) [Compound 390]	≤ 76.5	≥ 66.7
CN(C)C[C@H](O)C(=O)N[C@H](C#N)Cc1ccc(-c2ccc3cnn(C)c3c2)cc1F [Compound 374]	≤ 76.5	≤ 40
CN(C)C[C@H](O)C(=O)N[C@H](C#N)Cc1ccc(-c2cnc3c(n2)CCCC3)cc1 [Compound 372]	≤ 76.5	≤ 40
CO[C@@H](CN(C)C)C(=O)N[C@H](C#N)Cc1ccc(-c2cc3c(C)nc(C)cn3c2)cc1F [Compound 316]	≤ 76.5	≤ 40
CN(C)CCn1c(=O)oc2ccc(-c3ccc(C[C@@H](C#N)NC(=O)[C@@](C)(O)CN(C)C)cc3)cc21 [Compound 386]	76.5 to 93.9	≥ 66.7
CO[C@@H](CN(C)C)C(=O)N[C@H](C#N)Cc1ccc(-c2ccc3c(c2)C2(CCN(C4COC4)CC2)OC3)cc1 [Compound 308]	≤ 76.5	≤ 40
CN(C)C[C@](C)(O)C(=O)N[C@H](C#N)Cc1ccc(-c2ccc3c(c2)C2(CCN(C4COC4)CC2)OC3)cc1F [Compound 405]	76.5 to 93.9	≥ 66.7
CN(C)C[C@](C)(O)C(=O)N[C@H](C#N)Cc1ccc(-c2ccc3c(c2)C2(CN(C)C2)OC3=O)cc1F [Compound 401]	≥ 93.9	≥ 66.7
CO[C@@H](CN(C)C)C(=O)N[C@H](C#N)Cc1ccc(-c2ccc3oc(=O)n(CCN(C)C)c3c2)cc1 [Compound 302]	≤ 76.5	40 to 66.7
CO[C@@H](CN(C)C)C(=O)N[C@H](C#N)Cc1ccc(-c2ccc3c(c2)C2(CCN(C)C2)OC3=O)cc1F (stereo partly shown) [Compound 319]	≤ 76.5	≥ 66.7
CCN1C(=O)Cc2ccc(-c3ccc(C[C@@H](C#N)NC(=O)[C@H](CN(C)C)OC)cc3)cc21 [Compound 305]	≤ 76.5	≤ 40
CN(C)C[C@](C)(O)C(=O)N[C@H](C#N)Cc1ccc(-c2ccc(CN3CCN(C)CC3)cc2)cc1 [Compound 394]	76.5 to 93.9	≤ 40
